Source: patent US20230190705A1, “DRUG COMBINATION FOR TREATING DIABETES MELLITUS AND COMPLICATIONS THEREOF AND PHARMACEUTICAL COMPOSITION OF DRUG COMBINATION” (Chengdu Chipscreen Pharmaceutical Ltd., priority 2020, published 2023)

Columns and labels:
[1] = tested on: db/db male mice; test: Blood lipids (serum TC and TG), chiglitazar sodium with dapagliflozin (Example 4); type: in vivo; details: oral once a day for 14 days, serum on Day 15, 10 mg/kg chiglitazar sodium, 1.5 mg/kg dapagliflozin or both, FIG. 4
Experimental: Experimental design: the effects on total cholesterol (TC) and triglyceride (TG) in mouse serum of single and combined medication were investigated, by oral administration of chiglitazar sodium, dapagliflozin, or a combination thereof to diabetic mice.
Wild-type C57BLKS/Jnju mice were used as normal control (administered with vehicle). The period of administration was 14 days, and the animals were treated and dissected on Day 15. Whole blood was collected, serum was centrifuged and serum TC and TG were measured by biochemical analyzer.

[2] = tested on: db/db male mice; test: Blood lipids (serum TC and TG), chiglitazar sodium with empagliflozin (Example 3); type: in vivo; details: oral once a day for 14 days, serum on Day 15, 10 mg/kg chiglitazar sodium, 3 mg/kg empagliflozin or both, FIG. 3
Experimental: Experimental design: the effects on total cholesterol (TC) and triglyceride (TG) in mouse serum of single and combined medication were investigated, by oral administration of chiglitazar sodium, empagliflozin, or a combination thereof to diabetic mice.
Experimental procedure: 6-Week-old db/db male mice were orally administered once a day with 100 µL of vehicle (0.1% sodium carboxymethylcellulose), 10 mg/kg chiglitazar sodium, 3 mg/kg empagliflozin, or a combination of chiglitazar sodium and empagliflozin at the same doses simultaneously, respectively, according to body weight. Wild-type C57BLKS/Jnju mice were used as normal control (administered with vehicle). The period of administration was 14 days, and the animals were treated and dissected on Day 15. Whole blood was collected, serum was centrifuged and serum TC and TG were measured by biochemical analyzer.

[3] = tested on: db/db male mice; test: Body weight and fasting blood glucose, chiglitazar sodium with empagliflozin (Example 1); type: in vivo; details: oral once a day for 14 days, 10 mg/kg chiglitazar sodium, 3 mg/kg empagliflozin or both, FIG. 1; for fasting blood glucose: 4-6 hours of fasting
Experimental: Experimental design: the effects on body weight and blood glucose of single and combined medication were investigated, by oral administration of chiglitazar sodium, empagliflozin, or a combination thereof to mice.
Experimental procedure: 6-Week-old db/db male mice were orally administered once a day with 100 µL of vehicle (0.1% sodium carboxymethylcellulose), 10 mg/kg chiglitazar sodium, 3 mg/kg empagliflozin, or a combination of chiglitazar sodium and empagliflozin at the same doses simultaneously, respectively, according to body weight. Wild-type C57BLKS/Jnju mice were used as normal control (administered with the vehicle). The period of administration was 14 days, and the animals were treated and dissected on Day 15. Starting from the administration, the mice were subjected to weighing and measurement of fasting blood glucose (4-6 hours of fasting) every 3 days.

[4] = tested on: diabetic patients; details: clinical studies; cited from earlier work
[5] = tested on: db/db male mice; test: Body weight and fasting blood glucose, chiglitazar sodium with dapagliflozin (Example 2); type: in vivo; details: oral once a day for 14 days, 10 mg/kg chiglitazar sodium, 1.5 mg/kg dapagliflozin or both, FIG. 2
Experimental: Experimental design: the effects on body weight and blood glucose of single and combined medication were investigated, by oral administration of chiglitazar sodium, dapagliflozin, or a combination thereof to mice.
Wild-type C57BLKS/Jnju mice were used as normal control (administered with vehicle). The period of administration was 14 days, and the animals were treated and dissected on Day 15. Starting from the administration, the mice were subjected to weighing and measurement of fasting blood glucose (4-6 hours of fasting) every 3 days.

Row | SMILES | serum total cholesterol (TC) [1] | serum triglyceride (TG) [1] | serum total cholesterol (TC) [2] | serum triglyceride (TG) [2] | fasting blood glucose [3] | body weight [3] | efficacy on blood glucose and lipids in diabetic patients [4] | weight gain effect in diabetic patients [4] | fasting blood glucose ([5]; 4-6 hours of fasting) | body weight [5]
1 | O=C(c1ccc(F)cc1)c1ccccc1NC(Cc1ccc(OCCn2c3ccccc3c3ccccc32)cc1)C(=O)O (stereo not shown) [chiglitazar sodium] | could reduce the serum total cholesterol and triglyceride levels to a certain extent | could reduce the serum total cholesterol and triglyceride levels to a certain extent | could reduce the serum total cholesterol and triglyceride levels to a certain extent | could reduce the serum total cholesterol and triglyceride levels to a certain extent | could reduce blood glucose to a certain extent | weight gain | has efficacy in reducing blood glucose and improving lipids in diabetic patients | having certain weight gain effect | could reduce blood glucose to a certain extent | weight gain
2 | OC[C@H]1O[C@@H](c2ccc(Cl)c(Cc3ccc(O[C@H]4CCOC4)cc3)c2)[C@H](O)[C@@H](O)[C@@H]1O [empagliflozin, reference compound] | – | – | could reduce the serum total cholesterol and triglyceride levels to a certain extent | could reduce the serum total cholesterol and triglyceride levels to a certain extent | could reduce blood glucose to a certain extent | – | – | – | – | –
